The values that follow come from patent US10005769B2, “2,3-dihydrobenzofuran-5YL compounds as DYRK kinase inhibitors” (4SC DISCOVERY GMBH, priority 2013, dated 2018).

The term IC50 denotes the concentration that inhibits the measured activity by half.

Assay [1] has as its system Hedgehog signaling pathway (Gli Reporter - NIH3T3 cell line). Nature of the assay: Hedgehog Reporter Assay (Gli-Reporter, luciferase, mSHH stimulated). The conditions noted are these: Mus musculus; Gli Reporter NIH3T3 cells, 1 μg/ml mSHH, 24 h. In kind it is cell-based, murine. As to the method:
In order to investigate the potency of test compounds to inhibit the Hedgehog signaling pathway, a Gli-Reporter assay was performed. The “Gli Reporter-NIH3T3” cell line contains the firefly luciferase gene under the control of Gli responsive elements stably integrated into murine NIH3T3 cells (cells purchased from AMS Biotechnology ltd., 184 Milton Park, Abingdon OX14 4SE, U.K.). The luciferase expression correlates with activation of the hedgehog signaling pathway. This cell line is validated for its response to stimulation with murine Sonic Hedgehog and to treatment with inhibitors of the hedgehog signaling pathway. A multiplexed viability assay was used to discriminate inhibition on the pathway activity from cell toxicity. Growth Medium: DMEM (Dulbecco's Modified Eagle Medium); 10% Fetal Calf Serum; 1% Penicillin/Streptomycin; 500 μg/ml Geneticin (G418 Stock 50 mg/ml). Assay Medium: Opti-MEM® Reduced Serum Medium; 0.5% Calf Serum; 1% non-essential amino acids; 1 mM Na-pyruvate; 10 mM HEPES; 1% Penicillin/Streptomycin. 25,000 cells per well were seeded into a white 96 well plate in 100 μl growth medium and incubated over night at 37° C. and 5% CO2. After removing the supernatant the test compounds and controls were added in different concentrations in a final volume of 45 μl and incubated for 1 h at 37° C. and 5% CO2. For the stimulation of the Hedgehog pathway 5 μl of 10 μg/ml concentrated murine SHH (or mSHH; murine sonic hedgehog protein) was added to the cells. A final concentration of 1 μg/ml mSHH and 0.1% DMSO was reached per well. After incubation for 24 h at 37° C. the cells were investigated for viability and reporter activity. Viability: For the determination of the viability of the treated cells the CellTiter-FluorTM Kit from Promega comprising the fluorogenic, cell-permeant peptide substrate ([…]-aminofluorocoumarin GF-AFC was used. Roughly, only proteases of viable cells are able to cleave the GF-AFC. By this cleavage the fluorescent AFC is set free and can be detected in a fluorescence reader. For this assay 10 μl of GF-AFC substrate (CellTiter-FluorTM, Promega #G6082) was diluted in 2 ml assay buffer from the CellTiter-FluorTM Kit and 10 μl of this dilution was added per well to the cells and incubated for 30 min at 37° C. The fluorescence was measured with an excitation of 380-400 nm and an emission of 505 nm. Reporter activity: The firefly luciferase reporter activity was detected with the ONE-GloTM Luciferase Assay System from Promega. For this assay 50 μl ONE-Glo luciferase reagent (Promega #E6120, contains cell lysis buffer and luciferin) was added to each well and incubated at room temperature for 5 min. Luminescence was detected in a plate reader and served as a measure for reporter activity.
In general terms: In a reporter assay the amount or activity of a reporter protein is the signal.

For the next assay, the target named is DYRK1B (Homo sapiens (Human), UniProt Q9Y463). Kind of assay: DYRK1B Kinase Assay (33P ATP, DYRKtide substrate, Reaction Biology Corp.). The assay is classed as biochemical. The conditions noted are these: 0.3 nM DYRK1B, 20 μM DYRKtide, 10 μM ATP, 25° C., 120 min. The protocol:
The assay was carried out by Reaction Biology Corp., […], Pa., USA according to specifications by Reaction Biology Corp., as detailed herein below and further described in Anastassiadis et al., Nature Biotechnology, 29 (2011) 1039-1045. The substrate DYRKtide (synthetic peptide RRRFRPASPLRGPPK) was dissolved in freshly prepared Base Reaction Buffer (20 mM Hepes (pH 7.5), 10 mM MgCl2, 1 mM EGTA, 0.02% Brij35, 0.02 mg/ml BSA, 0.1 mM Na3VO4, 2 mM DTT, 1% DMSO) at a concentration of 20 μM. DYRK1B was added to the substrate solution in a concentration of 0.3 nM and gently mixed. Dilution series of the compounds according to the present invention in DMSO were prepared. Each dilution was added to a batch of the above reaction mix, followed 20 min later by addition of a mixture of ATP and ^33P ATP (specific activity 0.01 μCi/μl final) to a final concentration of 10 μM. Reactions were carried out at 25° C. for 120 min, followed by spotting the reactions onto P81 ion exchange filter paper. Unbound phosphate was removed by extensive washing of the filters in 0.75% phosphoric acid. […] IC50 values and curve fits were obtained using Prism (Graph Pad Software). DYRK1B used in the above assays are further described in the below table: [table] Exemplary compound dilution series, final concentrations of compound in the assay vessel; the individual concentrations and the range of concentrations covered by the dilution series may differ for each compound, as long as enough data points are obtained to determine the compound's IC50: DYRK 1[…].

Chain of DYRK1B (Q9Y463 whole entry): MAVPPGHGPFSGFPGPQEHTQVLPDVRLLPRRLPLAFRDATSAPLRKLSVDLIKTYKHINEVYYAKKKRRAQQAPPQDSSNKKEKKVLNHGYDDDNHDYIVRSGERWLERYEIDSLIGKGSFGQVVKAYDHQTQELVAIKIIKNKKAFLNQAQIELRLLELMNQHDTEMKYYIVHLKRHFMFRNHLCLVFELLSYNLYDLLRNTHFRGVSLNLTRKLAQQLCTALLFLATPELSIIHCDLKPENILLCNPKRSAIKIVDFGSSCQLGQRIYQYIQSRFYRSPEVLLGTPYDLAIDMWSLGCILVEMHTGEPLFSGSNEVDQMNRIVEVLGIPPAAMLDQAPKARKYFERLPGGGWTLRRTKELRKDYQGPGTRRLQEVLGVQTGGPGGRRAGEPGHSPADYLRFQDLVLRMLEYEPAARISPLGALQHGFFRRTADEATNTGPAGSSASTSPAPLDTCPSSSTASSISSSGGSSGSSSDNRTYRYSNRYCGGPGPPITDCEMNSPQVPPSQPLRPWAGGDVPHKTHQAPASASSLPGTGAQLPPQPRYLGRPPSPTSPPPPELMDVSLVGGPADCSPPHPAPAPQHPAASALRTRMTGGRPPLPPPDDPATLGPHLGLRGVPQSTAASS

Regarding `COc1ccc2[nH]c(NC(=O)c3csc(-c4ccc5c(c4)CCO5)n3)nc2c1` [Compound 4, 2-(2,3-Dihydrobenzofuran-5-yl)-N-(5-methoxy-1H-benzo[d]imidazol-2-yl)thiazole-4-carboxamide], the IC50 was 3000 to 10000 nM in assay [1] and 13.9 nM against DYRK1B.
In the case of `CN(C)C(=O)c1n[nH]c(NC(=O)c2csc(-c3ccc4c(c3)CCO4)n2)n1` [Compound 29, 2-(2,3-Dihydrobenzofuran-5-yl)-N-(5-(dimethylcarbamoyl)-4H-1,2,4-triazol-3-yl)thiazole-4-carboxamide], the IC50 was 3000 to 10000 nM in assay [1] and 72 nM on DYRK1B.
Consider `O=C(Nc1nnc(C(=O)N2CCCC2)[nH]1)c1csc(-c2ccc3c(c2)CCO3)n1` [Compound 28, 2-(2,3-Dihydrobenzofuran-5-yl)-N-(5-(pyrrolidine-1-carbonyl)-4H-1,2,4-triazol-3-yl)thiazole-4-carboxamide], for which the IC50 in assay [1] was 3000 to 10000 nM; at DYRK1B, 47.1 nM.
In the same order, the values of `O=C(Nc1nc2cc(C(=O)N3CCOCC3)ccc2[nH]1)c1csc(-c2ccc3c(c2)CCO3)n1` [Compound 10, 2-(2,3-Dihydrobenzofuran-5-yl)-N-(5-(morpholine-4-carbonyl)-1H-benzo[d]imidazol-2-yl)thiazole-4-carboxamide] are less than 1000 nM and 3.72 nM.
For the compound `CS(=O)(=O)c1ccc2[nH]c(NC(=O)c3csc(-c4ccc5c(c4)CCO5)n3)nc2c1` [Compound 3, 2-(2,3-Dihydrobenzofuran-5-yl)-N-(5-(methylsulfonyl)-1H-benzo[d]imidazol-2-yl)thiazole-4-carboxamide], the IC50 in assay [1] is less than 1000 nM; at DYRK1B it was 1.49 nM.
In the same order, the values of `CCOC(=O)c1ccc2[nH]c(NC(=O)c3csc(-c4ccc5c(c4)CCO5)n3)nc2c1` [Compound 9, Ethyl 2-(2-(2,3-dihydrobenzofuran-5-yl)thiazole-4-carboxamido)-1H-benzo[d]imidazole-5-carboxylate] are less than 1000 nM and 3.63 nM.
The matching figures for `O=C(Nc1nc(C(=O)NC2CC2)n[nH]1)c1csc(-c2ccc3c(c2)CCO3)n1` [Compound 25, N-(3-(Cyclopropylcarbamoyl)-1H-1,2,4-triazol-5-yl)-2-(2,3-dihydrobenzofuran-5-yl)thiazole-4-carboxamide]: 1000 to 3000 nM and 3.51 nM.
The matching figures for `O=C(Nc1nc2cc(Cl)c(F)cc2[nH]1)c1csc(-c2ccc3c(c2)CCO3)n1` [Compound 2, N-(5-Chloro-6-fluoro-1H-benzo[d]imidazol-2-yl)-2-(2,3-dihydrobenzofuran-5-yl)thiazole-4-carboxamide]: 1000 to 3000 nM and 48.2 nM.
For the compound `O=C(Nc1ncco1)c1csc(-c2ccc3c(c2)CCO3)n1` [Compound 79, 2-(2,3-Dihydro-1-benzofuran-5-yl)-N-(1,3-oxazol-2-yl)-1,3-thiazole-4-carboxamide], the midpoint of inhibition at DYRK1B, the IC50, lay at 766 nM.
Still for that read-out and setting: next, `O=C(Nc1cc[nH]n1)c1csc(-c2ccc3c(c2)CCO3)n1` [Compound 62, 2-(2,3-Dihydro-1-benzofuran-5-yl)-N-(1H-pyrazol-3-yl)-1,3-thiazole-4-carboxamide]: 42.4 nM.
Still for that read-out and setting: next, `Cc1csc(NC(=O)c2csc(-c3ccc4c(c3)CCO4)n2)n1` [Compound 72, 2-(2,3-Dihydro-1-benzofuran-5-yl)-N-(4-methyl-1,3-thiazol-2-yl)-1,3-thiazole-4-carboxamide]: 111 nM.
Still for that read-out and setting: next, `O=C(Nc1nnc(C(=O)O)[nH]1)c1csc(-c2ccc3c(c2)CCO3)n1` [Compound 31, 5-(2-(2,3-Dihydrobenzofuran-5-yl)thiazole-4-carboxamido)-4H-1,2,4-triazole-3-carboxylic acid]: 68.1 nM; `O=C(Nc1nc2cc(C(=O)c3cccs3)ccc2[nH]1)c1csc(-c2ccc3c(c2)CCO3)n1` [Compound 48, 2-(2,3-Dihydro-1-benzofuran-5-yl)-N-[5-(thiophene-2-carbonyl)-1H-1,3-benzodiazol-2-yl]-1,3-thiazole-4-carboxamide]: 5.57 nM.
In turn, `CS(=O)(=O)c1n[nH]c(NC(=O)c2csc(-c3ccc4c(c3)CCO4)n2)n1` [Compound 43, 2-(2,3-Dihydrobenzofuran-5-yl)-N-(3-(methylsulfonyl)-1H-1,2,4-triazol-5-yl)thiazole-4-carboxamide] registered an IC50 against DYRK1B of 535 nM.
The same measure, in the same setting: the result for `O=C(Nc1nc[nH]n1)c1csc(-c2ccc3c(c2)CCO3)n1` [Compound 63, 2-(2,3-Dihydro-1-benzofuran-5-yl)-N-(1H-1,2,4-triazol-3-yl)-1,3-thiazole-4-carboxamide] reads 47.1 nM.
Same read-out and setting: the result for `O=C(Nc1nccs1)c1csc(-c2ccc3c(c2)CCO3)n1` [Compound 65, 2-(2,3-Dihydro-1-benzofuran-5-yl)-N-(1,3-thiazol-2-yl)-1,3-thiazole-4-carboxamide] reads 48.7 nM; that for `Cc1nc(NC(=O)c2csc(-c3ccc4c(c3)CCO4)n2)sc1C` [Compound 74, 2-(2,3-Dihydro-1-benzofuran-5-yl)-N-(dimethyl-1,3-thiazol-2-yl)-1,3-thiazole-4-carboxamide], 125 nM.
On the same count and under the same terms, the result for `O=C(Nc1nnc(N2CCCCC2)s1)c1csc(-c2ccc3c(c2)CCO3)n1` [Compound 52, 2-(2,3-Dihydro-1-benzofuran-5-yl)-N-[5-(piperidin-1-yl)-1,3,4-thiadiazol-2-yl]-1,3-thiazole-4-carboxamide] reads 12.6 nM; that for `Nc1nc(NC(=O)c2csc(-c3ccc4c(c3)CCO4)n2)ns1` [Compound 70, N-(5-Amino-1,2,4-thiadiazol-3-yl)-2-(2,3-dihydro-1-benzofuran-5-yl)-1,3-thiazole-4-carboxamide], 73.4 nM; that for `O=C(Nc1nc2cc(C(=O)c3ccc[nH]3)ccc2[nH]1)c1csc(-c2ccc3c(c2)CCO3)n1` [Compound 49, 2-(2,3-Dihydro-1-benzofuran-5-yl)-N-[5-(H-pyrrole-2-carbonyl)-1H-1,3-benzodiazol-2-yl]-1,3-thiazole-4-carboxamide], 6.63 nM.
`N#CCSc1n[nH]c(NC(=O)c2csc(-c3ccc4c(c3)CCO4)n2)n1` [Compound 38, N-(3-((Cyanomethyl)thio)-1H-1,2,4-triazol-5-yl)-2-(2,3-dihydrobenzofuran-5-yl)thiazole-4-carboxamide] showed an IC50 at DYRK1B of 3.97 nM.
On DYRK1B, `O=C(Nc1nc(SCc2ccc(Cl)cc2)n[nH]1)c1csc(-c2ccc3c(c2)CCO3)n1` [Compound 33, N-(3-((4-Chlorobenzyl)thio)-1H-1,2,4-triazol-5-yl)-2-(2,3-dihydrobenzofuran-5-yl)thiazole-4-carboxamide] gave an IC50 of 337 nM.
Compound `O=C(Nc1nc2ccc(CN3CCOCC3)cc2s1)c1csc(-c2ccc3c(c2)CCO3)n1` [Compound 40, 2-(2,3-Dihydrobenzofuran-5-yl)-N-(6-(morpholinomethyl)benzo[d]thiazol-2-yl)thiazole-4-carboxamide] showed a half-maximal inhibitory concentration (IC50) at DYRK1B of 15.7 nM.
Still for that read-out and setting: the result for `CCOC(=O)CSc1n[nH]c(NC(=O)c2csc(-c3ccc4c(c3)CCO4)n2)n1` [Compound 61, Ethyl 2-({5-[2-(2,3-dihydro-1-benzofuran-5-yl)-1,3-thiazole-4-amido]-1H-1,2,4-triazol-3-yl}sulfanyl)acetate] reads 39.1 nM.
